We go through 19 compounds from PubChem BioAssay AID330 (DTP/NCI, 2004).

“And” between values parts separate entries of the source, which are not always exact repeats. Equal values may be shown once. Inconclusive results and toxic doses are left out.

This test deals with P388 leukemia ip, CD2F1 mice, survival T/C. The experiment in a line: NCI In Vivo Anticancer Drug Screen. Data for tumor model P388 Leukemia (intraperitoneal) in CD2F1 (CDF1) mice. The settings on record: endpoint: median survival time, higher = longer survival. In a few lines: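 Mice carrying the transplanted tumor received test compound or vehicle. Survival was recorded in each group, and the value is the treated-group measurement divided by that of the vehicle-treated control group.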

Where [1] appears, read: dose: 100.0 mg/kg/injection, schedule: Q01DX009 (ip), vehicle: saline with Tween-80.
Setting [2] is: dose: 200.0 mg/kg/injection, schedule: Q01DX009 (ip), vehicle: saline with Tween-80.
[3] abbreviates: dose: 400.0 mg/kg/injection, schedule: Q01DX009 (ip), vehicle: saline with Tween-80.
Where [4] appears, read: dose: 60.0 mg/kg/injection, schedule: Q01DX005 (ip), vehicle: saline with Tween-80.
Setting [5] is: dose: 120.0 mg/kg/injection, schedule: Q01DX005 (ip), vehicle: saline with Tween-80.
Setting [6] is: dose: 240.0 mg/kg/injection, schedule: Q01DX005 (ip), vehicle: saline with Tween-80.
Where [7] appears, read: dose: 100.0 mg/kg/injection, schedule: Q01DX001 (ip), vehicle: saline with Tween-80.

On to `CCc1nc(N)nc(N)c1-c1ccc(N2CC[N+](C)(C)CC2)cc1`, for which the T/C reads like this: (dose: 0.24 mg/kg/injection, schedule: Q01DX005 (ip), vehicle: saline with Tween-80) 99 % of control; (dose: 0.48 mg/kg/injection, schedule: Q01DX005 (ip), vehicle: saline with Tween-80) 101 % of control; (dose: 0.94 mg/kg/injection, schedule: Q01DX005 (ip), vehicle: saline with Tween-80) 105 % of control; (dose: 0.96 mg/kg/injection, schedule: Q01DX005 (ip), vehicle: saline with Tween-80) 119 % of control.
Regarding `CC(C)N=C(Nc1ccccc1)c1ccccc1`, the T/C is 93 % of control (dose: 12.5 mg/kg/injection, schedule: Q01DX009 (ip), vehicle: saline with Tween-80); 89 % of control (dose: 25.0 mg/kg/injection, schedule: Q01DX009 (ip), vehicle: saline with Tween-80); 88 % of control (dose: 50.0 mg/kg/injection, schedule: Q01DX009 (ip), vehicle: saline + Tween-80 + alcohol).
On to `CCOc1ccc(C(=O)Nc2c(C)cc(C)cc2C)cc1`, for which the T/C is, setting by setting: under setting [1], 90 % of control; under setting [2], 95 % of control; under setting [3], 105 % of control.
As to `CN1c2ccc(C3N(C(=O)C(F)(F)F)C=CN3C(=O)C(F)(F)F)cc2Sc2cc(C3N(C(=O)C(F)(F)F)C=CN3C(=O)C(F)(F)F)ccc21`, the T/C reads like this: under setting [4], 91 % of control; under setting [5], 89 % of control; under setting [6], 91 % of control.
Take `COC(=O)C1(C)C(=O)C=CC2(C)C1CC(O)C1(C)C2C(O)C(O)C2(C)C(c3ccoc3)CC3OC321` (centres undefined) (tested in a mixture with another compound): the T/C is, setting by setting: (dose: 0.75 mg/kg/injection, schedule: Q01DX005 (ip), vehicle: Klucel (hydroxypropylcellulose) (HPC)) 102 % of control; (dose: 1.5 mg/kg/injection, schedule: Q01DX005 (ip), vehicle: Klucel (hydroxypropylcellulose) (HPC)) 96 % of control; (dose: 3.0 mg/kg/injection, schedule: Q01DX005 (ip), vehicle: Klucel (hydroxypropylcellulose) (HPC)) 96 % of control; (dose: 6.0 mg/kg/injection, schedule: Q01DX005 (ip), vehicle: Klucel (hydroxypropylcellulose) (HPC)) 99 % of control; (dose: 12.0 mg/kg/injection, schedule: Q01DX005 (ip), vehicle: Klucel (hydroxypropylcellulose) (HPC)) 103 % of control.
With `CC(C)(C)c1cc2c3c(c1)C(C)(C)OS314(OC2=O)OC(=O)c2cc(C(C)(C)C)cc(c21)C(C)(C)O4`, the T/C reads like this: (dose: 25.0 mg/kg/injection, schedule: Q01DX001 (ip), vehicle: saline with Tween-80) 111 % of control; (dose: 50.0 mg/kg/injection, schedule: Q01DX001 (ip), vehicle: saline with Tween-80) 92 % of control; under setting [7], 100 % of control.
As to `O=C(Nc1ccccc1)c1cc2ccccc2oc1=O`, the T/C was 99 % of control (dose: 30.0 mg/kg/injection, schedule: Q01DX005 (ip), vehicle: saline with Tween-80); 95 % of control under setting [4]; 94 % of control under setting [5]; 100 % of control under setting [6].
Take `COc1ccc(Sc2c(C(=O)O)cccc2C(=O)O)cc1`: the T/C was 102 % of control (dose: 100.0 mg/kg/injection, schedule: Q04DX002 (ip), vehicle: saline with Tween-80); 100 % of control (dose: 200.0 mg/kg/injection, schedule: Q04DX002 (ip), vehicle: saline with Tween-80); 101 % of control (dose: 400.0 mg/kg/injection, schedule: Q04DX002 (ip), vehicle: saline with Tween-80).
Take `CC[N+](C)(CC)CCSC1=Nc2ccccc2N=C(c2ccc(Sc3ccccc3)cc2)C1`: the T/C is, setting by setting: (dose: 1.56 mg/kg/injection, schedule: Q01DX009 (ip), vehicle: Klucel (hydroxypropylcellulose) (HPC)) 117 % of control; (dose: 3.12 mg/kg/injection, schedule: Q01DX009 (ip), vehicle: Klucel (hydroxypropylcellulose) (HPC)) 99 % of control; (dose: 6.25 mg/kg/injection, schedule: Q01DX009 (ip), vehicle: Klucel (hydroxypropylcellulose) (HPC)) 106 % of control and 108 % of control.
For the compound `NC(=O)CCC(N)C(=O)O.[Cl-].[Cl-].[Cl-].[Cl-].[Pt+2]` (centres undefined), the T/C was 107 % of control (dose: 6.25 mg/kg/injection, schedule: Q01DX009 (ip), vehicle: saline); 153 % of control (dose: 6.25 mg/kg/injection, schedule: Q01DX009 (ip), vehicle: water); 106 % of control (dose: 11.0 mg/kg/injection, schedule: Q01DX009 (ip), vehicle: saline); 110 % of control (dose: 12.5 mg/kg/injection, schedule: Q01DX009 (ip), vehicle: saline); 154 % of control and 155 % of control (dose: 12.5 mg/kg/injection, schedule: Q01DX009 (ip), vehicle: water); 155 % of control (dose: 25.0 mg/kg/injection, schedule: Q01DX009 (ip), vehicle: water). In addition, the T/C is 157 % of control (dose: 37.5 mg/kg/injection, schedule: Q01DX009 (ip), vehicle: saline) and 152 % of control (dose: 50.0 mg/kg/injection, schedule: Q01DX009 (ip), vehicle: saline).
For the compound `O=C1c2cccc(NCCNCCO)c2C(=O)c2cccc(Cl)c21`, the T/C is 98 % of control (dose: 5.0 mg/kg/injection, schedule: Q01DX009 (ip), vehicle: acid diluted with saline); 113 % of control (dose: 10.0 mg/kg/injection, schedule: Q01DX009 (ip), vehicle: acid diluted with saline); 115 % of control (dose: 20.0 mg/kg/injection, schedule: Q01DX009 (ip), vehicle: acid diluted with saline); 113 % of control (dose: 40.0 mg/kg/injection, schedule: Q01DX009 (ip), vehicle: acid diluted with saline); 124 % of control (dose: 80.0 mg/kg/injection, schedule: Q01DX009 (ip), vehicle: acid diluted with saline); 120 % of control (dose: 160.0 mg/kg/injection, schedule: Q01DX009 (ip), vehicle: acid diluted with saline).
In the case of `O=[N+]([O-])c1cc2cc(Cl)c3ccccc3c2o1`, the T/C was 100 % of control (dose: 50.0 mg/kg/injection, schedule: Q01DX005 (ip), vehicle: Klucel (hydroxypropylcellulose) (HPC)); 102 % of control (dose: 100.0 mg/kg/injection, schedule: Q01DX005 (ip), vehicle: Klucel (hydroxypropylcellulose) (HPC)); 102 % of control (dose: 200.0 mg/kg/injection, schedule: Q01DX005 (ip), vehicle: Klucel (hydroxypropylcellulose) (HPC)).
Take `CN(CCCl)C(=O)c1ccc([N+](=O)[O-])cc1`: the T/C was 105 % of control (dose: 50.0 mg/kg/injection, schedule: Q01DX009 (ip), vehicle: saline with Tween-80); 116 % of control under setting [1]; 101 % of control under setting [2].
Take `CCN1CC[N+](CC)=C1C(=S)[S-]`: the T/C is 100 % of control under setting [7]; 104 % of control (dose: 200.0 mg/kg/injection, schedule: Q01DX001 (ip), vehicle: saline with Tween-80); 100 % of control (dose: 400.0 mg/kg/injection, schedule: Q01DX001 (ip), vehicle: saline with Tween-80).
With `NC(=O)c1cc([N+](=O)[O-])cc([N+](=O)[O-])c1`, the T/C by setting is: (dose: 25.0 mg/kg/injection, schedule: Q01DX009 (ip), vehicle: Klucel (hydroxypropylcellulose) (HPC)) 103 % of control; (dose: 50.0 mg/kg/injection, schedule: Q01DX009 (ip), vehicle: Klucel (hydroxypropylcellulose) (HPC)) 88 % of control; (dose: 100.0 mg/kg/injection, schedule: Q01DX009 (ip), vehicle: Klucel (hydroxypropylcellulose) (HPC)) 91 % of control.
On to `CCn1c2ccccc2c2cc(NC(=O)Nc3ccc4c(c3)c3ccccc3n4CC)ccc21`, for which the T/C reads like this: (dose: 50.0 mg/kg/injection, schedule: Q01DX005 (ip), vehicle: saline with Tween-80) 90 % of control; (dose: 100.0 mg/kg/injection, schedule: Q01DX005 (ip), vehicle: saline with Tween-80) 97 % of control; (dose: 200.0 mg/kg/injection, schedule: Q01DX005 (ip), vehicle: saline with Tween-80) 109 % of control.
`CNS(=O)(=O)c1ccc2c(c1)[nH]c(=S)n2C`: the T/C under setting [1] is 95 % of control, the T/C under setting [2] is 90 % of control and the T/C under setting [3] is 90 % of control.
For the compound `ClCCN(CCCl)c1ccc(N=Nc2ccc(-c3ccccc3)cc2)cc1`, the T/C (dose: 3.0 mg/kg/injection, schedule: Q01DX001 (ip), vehicle: Klucel (hydroxypropylcellulose) (HPC)) was 95 % of control; the T/C (dose: 6.0 mg/kg/injection, schedule: Q01DX001 (ip), vehicle: Klucel (hydroxypropylcellulose) (HPC)) was 103 % of control; the T/C (dose: 12.0 mg/kg/injection, schedule: Q01DX001 (ip), vehicle: Klucel (hydroxypropylcellulose) (HPC)) was 93 % of control.
Consider `CC(=O)c1ccc(O)c(O)c1O`, for which the T/C (dose: 100.0 mg/kg/injection, schedule: Q01DX009 (ip), vehicle: saline) is 103 % of control and 104 % of control; the T/C (dose: 200.0 mg/kg/injection, schedule: Q01DX009 (ip), vehicle: saline) is 107 % of control and 120 % of control; the T/C (dose: 600.0 mg/kg/injection, schedule: Q01DX009 (ip), vehicle: saline) was 103 % of control and 104 % of control.
